In assay [1] the target is T1, human amylin 3(a) receptor (human calcitonin receptor + RAMP-3) in BHK570 cells (Homo sapiens, UniProt O60896+P30988).
T1 construct: expressed in transfected cells
The assay is described as follows: ASSAY (II)a functional assay, human amylin receptor (CRE luciferase). Conditions: for pEC50: human amylin receptor functional potency, assay (II), read-out: hAmylin-R funct. EC50. The assay is classed as cell-based. The gist of the method: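 Receptor activation is measured as cAMP-driven CRE-luciferase expression in BHK cells expressing the calcitonin receptor, with RAMP-3 co-expressed to form the amylin 3(a) receptor. Cells are exposed to compound for 3 hours at 37° C, and luciferase is then quantified by luminescence.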

In assay [2] the target is T2, human amylin receptor (membranes from Amylin 3(a)/CRE-luc cells) (Homo sapiens, UniProt O60896+P30988).
T2 construct: expressed in transfected cells
T2 sequence (P30988 25-474): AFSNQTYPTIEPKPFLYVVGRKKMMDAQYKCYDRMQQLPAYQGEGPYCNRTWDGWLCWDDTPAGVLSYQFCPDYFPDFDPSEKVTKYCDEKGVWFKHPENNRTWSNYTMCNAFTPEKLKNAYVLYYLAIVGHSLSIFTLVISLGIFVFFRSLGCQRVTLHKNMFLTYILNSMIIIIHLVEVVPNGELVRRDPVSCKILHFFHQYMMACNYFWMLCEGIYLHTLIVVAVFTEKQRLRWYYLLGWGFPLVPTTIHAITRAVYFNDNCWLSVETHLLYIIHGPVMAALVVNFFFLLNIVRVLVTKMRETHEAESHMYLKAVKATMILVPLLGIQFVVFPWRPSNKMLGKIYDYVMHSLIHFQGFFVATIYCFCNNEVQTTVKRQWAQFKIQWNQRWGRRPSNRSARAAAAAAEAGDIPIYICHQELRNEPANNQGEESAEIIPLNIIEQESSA
T2 sequence (O60896 24-148 partner): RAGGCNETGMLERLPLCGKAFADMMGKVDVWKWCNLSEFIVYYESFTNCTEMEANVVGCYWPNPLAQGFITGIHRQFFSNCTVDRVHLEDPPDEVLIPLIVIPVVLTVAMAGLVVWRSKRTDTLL
Description: ASSAY (V) binding to the human amylin receptor (SPA, 125I-rat amylin).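 For all read-outs here: competition binding of cell membranes (35 ng/µL) mixed with SPA beads in 384-well plates at 40 µL total volume, read by scintillation counting.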 The settings on record: for pIC50: Table 4, read-out: hAmylin-R bind IC50.

In the next assay the target is T3, rat calcitonin receptor (Rattus norvegicus, UniProt P32214).
T3 construct: expressed in transfected cells; host or cells: BHK tk'ts 13 (transient, FuGENE 6), membranes
T3 sequence (P32214 25-479 isoform P32214-2 limits assumed): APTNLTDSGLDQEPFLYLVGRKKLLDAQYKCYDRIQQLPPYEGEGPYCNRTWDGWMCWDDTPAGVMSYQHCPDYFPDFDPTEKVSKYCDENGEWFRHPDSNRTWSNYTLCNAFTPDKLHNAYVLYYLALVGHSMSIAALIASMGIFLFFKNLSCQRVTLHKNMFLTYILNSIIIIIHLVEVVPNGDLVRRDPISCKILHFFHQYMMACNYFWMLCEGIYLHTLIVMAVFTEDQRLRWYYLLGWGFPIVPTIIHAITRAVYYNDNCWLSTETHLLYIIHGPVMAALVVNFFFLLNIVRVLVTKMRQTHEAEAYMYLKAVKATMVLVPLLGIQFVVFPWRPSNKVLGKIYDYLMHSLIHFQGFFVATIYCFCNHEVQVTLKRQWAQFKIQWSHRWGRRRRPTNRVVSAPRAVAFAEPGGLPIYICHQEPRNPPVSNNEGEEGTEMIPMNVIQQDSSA
The assay is described as follows: ASSAY (VIII) binding to the rat calcitonin receptor. Conditions: Table 7, read-out: rCTR bind IC50. The gist of the method: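 Receptor source: membranes from transiently transfected BHK tk′ts 13 cells expressing rat calcitonin receptor, collected roughly 48 hours after transfection.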

Where [3] appears, read: hCTR funct. EC50 divided by hAmylin-R funct. EC50.
Setting [4] is: hCTR funct. EC50 over hAmylin-R funct. EC50.
Where [5] appears, read: human functional selectivity: hCTR funct. EC50 / hAmylin-R funct. EC50.
[6] abbreviates: Table 5, selectivity, hCTR bind IC50 / hAmylin-R bind IC50.
Setting [7] is: Table 5a, selectivity, hCTR bind IC50 / hAmylin-R bind IC50.
Setting [8] is: Table 5b, selectivity, hCTR bind IC50 / hAmylin-R bind IC50.
Where [9] appears, read: Table 5c, selectivity, hCTR bind IC50 / hAmylin-R bind IC50.
The mark [10] stands for this setting: Table 7, human binding selectivity, included for comparison.
The mark [11] stands for this setting: Table 7a (preferred compounds), human binding selectivity, included for comparison.
[12] abbreviates: ratio of human calcitonin receptor binding IC50 to human amylin receptor binding IC50.

pEC50, pIC50: −log10 of the molar value. Numbered stars: 1 amine (or outer) side, 2 acyl side, 3 side chain; on linkers, the order of the positions; unused ones are H or OH. Bridge positions count the residues as written; N and C are the ends. Side chains are listed from the residue outwards. Peptide text beside a SMILES is read from it. * marks the point of attachment. C20 diacid = O=C(O)CCCCCCCCCCCCCCCCCCC(=O)*; γGlu = O=C(O)[C@H](CCC(=O)[*:2])N[*:1]

By pEC50 is commonly meant the EC50 on a negative log10 scale, so that one unit is a factor of ten. One may read the pIC50 as the IC50 on a negative log10 scale, so that one unit is a factor of ten.

On to `CC[C@H](C)[C@H](NC(=O)[C@H](C)NC(=O)CNC(=O)[C@H](Cc1ccccc1)NC(=O)[C@H](CC(N)=O)NC(=O)[C@@H]1CCCN1C(=O)[C@H](CO)NC(=O)[C@H](CO)NC(=O)[C@H](Cc1c[nH]cn1)NC(=O)[C@H](CCCNC(=N)N)NC(=O)[C@H](CC(C)C)NC(=O)[C@H](Cc1ccccc1)NC(=O)[C@H](CC(N)=O)NC(=O)[C@H](C)NC(=O)[C@H](CC(C)C)NC(=O)[C@H](CCCNC(=N)N)NC(=O)[C@H](CCC(N)=O)NC(=O)[C@@H](NC(=O)[C@H](C)NC(=O)[C@@H]1CSSC[C@H](NC(=O)[C@@H](N)CCCCNC(=O)CC[C@H](NC(=O)CCCCCCCCCCCCCCCCCCC(=O)O)C(=O)O)C(=O)N[C@@H](CC(N)=O)C(=O)N[C@@H]([C@@H](C)O)C(=O)N[C@@H](C)C(=O)N[C@@H]([C@@H](C)O)C(=O)N1)[C@@H](C)O)C(=O)N1CCC[C@H]1C(=O)N[C@@H](CO)C(=O)N[C@@H](CO)C(=O)N[C@H](C(=O)N[C@@H](CC(N)=O)C(=O)N[C@H](C(=O)NCC(=O)N[C@@H](CO)C(=O)N[C@@H](CCCCN)C(=O)N[C@H](C(=O)N[C@@H](Cc1ccc(O)cc1)C(N)=O)[C@@H](C)O)C(C)C)[C@@H](C)O` [Example 35] (H-K([γGlu-C20 diacid])CNTATCATQRLANFLRHSSPNFGAIPSSTNVGSKTY-NH2; disulfide 2-7; N-terminus assumed), for which the “Ratio hCT/hAmylin funct.” value in assay [1] (setting [3]), in assay [1] (setting [4]) and in assay [1] (setting [5]) was 15.0 in each case. The pEC50 in assay [1] was 9.44. Besides, the figures for the pIC50 (in assay [2]; at rat calcitonin receptor) were 9.01 and 7.21, respectively. Moreover, the “Ratio hCT/hAmylin binding” value in assay [2] (setting [6]), in assay [2] (setting [7]), in assay [2] (setting [8]), in assay [2] (setting [9]), in assay [2] (setting [10]) and in assay [2] (setting [11]) was 50.3 throughout. In assay [2] (setting [12]), the “Ratio hCT/hAmylin binding” value worked out at 50.3.

With `CC[C@H](C)[C@H](NC(=O)[C@H](C)NC(=O)CNC(=O)[C@H](Cc1ccccc1)NC(=O)[C@H](CC(N)=O)NC(=O)[C@@H]1CCCN1C(=O)[C@H](CO)NC(=O)[C@H](CO)NC(=O)[C@H](Cc1c[nH]cn1)NC(=O)[C@H](CCCNC(=N)N)NC(=O)[C@H](CC(C)C)NC(=O)[C@H](Cc1ccccc1)NC(=O)[C@H](Cc1c[nH]cn1)NC(=O)[C@H](C)NC(=O)[C@H](CC(C)C)NC(=O)[C@H](CCCNC(=N)N)NC(=O)[C@H](CCC(N)=O)NC(=O)[C@@H](NC(=O)[C@H](C)NC(=O)[C@@H]1CSSC[C@H](NC(=O)[C@@H](N)CCCCNC(=O)CC[C@H](NC(=O)CCCCCCCCCCCCCCCCCCC(=O)O)C(=O)O)C(=O)N[C@@H](CC(N)=O)C(=O)N[C@@H]([C@@H](C)O)C(=O)N[C@@H](C)C(=O)N[C@@H]([C@@H](C)O)C(=O)N1)[C@@H](C)O)C(=O)N1CCC[C@H]1C(=O)N[C@@H](CO)C(=O)N[C@@H](CO)C(=O)N[C@H](C(=O)N1CCC[C@H]1C(=O)N[C@H](C(=O)NCC(=O)N[C@@H](CO)C(=O)N[C@@H](CC(N)=O)C(=O)N[C@H](C(=O)N[C@@H](Cc1ccc(O)cc1)C(N)=O)[C@@H](C)O)C(C)C)[C@@H](C)O` [Example 62] (H-K([γGlu-C20 diacid])CNTATCATQRLAHFLRHSSPNFGAIPSSTPVGSNTY-NH2; disulfide 2-7; N-terminus assumed), the “Ratio hCT/hAmylin funct.” value in assay [1] (setting [3]), in assay [1] (setting [4]) and in assay [1] (setting [5]) was 12.3 in each case. Further, in assay [1], the pEC50 was 10.36. Further, the pIC50 in assay [2] was 10.01; at rat calcitonin receptor, 7.75. The “Ratio hCT/hAmylin binding” value in assay [2] (setting [6]), in assay [2] (setting [7]), in assay [2] (setting [8]), in assay [2] (setting [9]), in assay [2] (setting [10]) and in assay [2] (setting [11]) was 63.0 in each case. Besides, the “Ratio hCT/hAmylin binding” value in assay [2] (setting [12]) is on record as 63.0.

`CC[C@H](C)[C@H](NC(=O)[C@H](C)NC(=O)CNC(=O)[C@H](Cc1ccccc1)NC(=O)[C@H](CC(N)=O)NC(=O)[C@@H]1CCCN1C(=O)[C@H](CO)NC(=O)[C@H](CO)NC(=O)[C@H](Cc1c[nH]cn1)NC(=O)[C@H](CCCNC(=N)N)NC(=O)[C@H](CC(C)C)NC(=O)[C@H](Cc1ccccc1)NC(=O)[C@H](CC(N)=O)NC(=O)[C@H](C)NC(=O)[C@H](CC(C)C)NC(=O)[C@H](CCCNC(=N)N)NC(=O)[C@H](CCC(N)=O)NC(=O)[C@@H](NC(=O)[C@H](C)NC(=O)[C@@H]1CSSC[C@H](NC(=O)[C@@H](N)CCCCNC(=O)CC[C@H](NC(=O)CCCCCCCCCCCCCCC(=O)O)C(=O)O)C(=O)N[C@@H](CC(N)=O)C(=O)N[C@@H]([C@@H](C)O)C(=O)N[C@@H](C)C(=O)N[C@@H]([C@@H](C)O)C(=O)N1)[C@@H](C)O)C(=O)N1CCC[C@H]1C(=O)N[C@@H](CO)C(=O)N[C@@H](CO)C(=O)N[C@H](C(=O)N[C@@H](CC(N)=O)C(=O)N[C@H](C(=O)NCC(=O)N[C@@H](Cc1c[nH]cn1)C(=O)N[C@@H](CC(N)=O)C(=O)N[C@H](C(=O)N[C@@H](Cc1ccc(O)cc1)C(N)=O)[C@@H](C)O)C(C)C)[C@@H](C)O` [Example 111]: the “Ratio hCT/hAmylin funct.” value in assay [1] (setting [3]), in assay [1] (setting [4]) and in assay [1] (setting [5]) was 65.1 each time. Further, the “Ratio hCT/hAmylin binding” value in assay [2] (setting [6]), in assay [2] (setting [7]), in assay [2] (setting [8]), in assay [2] (setting [9]), in assay [2] (setting [10]) and in assay [2] (setting [11]) was 18.5 throughout. Also, the “Ratio hCT/hAmylin binding” value in assay [2] (setting [12]) is listed as 18.5. On rat calcitonin receptor, the pIC50 was 6.39.

Consider `CC[C@H](C)[C@H](NC(=O)[C@H](C)NC(=O)CNC(=O)[C@H](Cc1ccccc1)NC(=O)[C@H](CC(N)=O)NC(=O)[C@@H]1CCCN1C(=O)[C@H](CO)NC(=O)[C@H](CO)NC(=O)[C@H](Cc1c[nH]cn1)NC(=O)[C@H](CCCNC(=N)N)NC(=O)[C@H](CC(C)C)NC(=O)[C@H](Cc1ccccc1)NC(=O)[C@H](CC(N)=O)NC(=O)[C@H](C)NC(=O)[C@H](CC(C)C)NC(=O)[C@H](CCCNC(=N)N)NC(=O)[C@H](CCC(N)=O)NC(=O)[C@@H](NC(=O)[C@H](C)NC(=O)[C@@H]1CSSC[C@H](NC(=O)[C@H](CCCNC(=N)N)NC(=O)CNC(=O)CC[C@H](NC(=O)CCCCCCCCCCCCCCCCCCC(=O)O)C(=O)O)C(=O)N[C@@H](CC(N)=O)C(=O)N[C@@H]([C@@H](C)O)C(=O)N[C@@H](C)C(=O)N[C@@H]([C@@H](C)O)C(=O)N1)[C@@H](C)O)C(=O)N1CCC[C@H]1C(=O)N[C@@H](CO)C(=O)N[C@@H](CO)C(=O)N[C@H](C(=O)N[C@@H](CC(N)=O)C(=O)N[C@H](C(=O)NCC(=O)N[C@@H](CO)C(=O)N[C@@H](Cc1c[nH]cn1)C(=O)N[C@H](C(=O)N[C@@H](Cc1ccc(O)cc1)C(N)=O)[C@@H](C)O)C(C)C)[C@@H](C)O` [Example 47] ({C20 diacid-γGlu}-GRCNTATCATQRLANFLRHSSPNFGAIPSSTNVGSHTY-NH2; disulfide 3-8), for which the “Ratio hCT/hAmylin funct.” value in assay [1] (setting [3]), in assay [1] (setting [4]) and in assay [1] (setting [5]) was 6.0 each time. Also, the “Ratio hCT/hAmylin binding” value in assay [2] (setting [6]), in assay [2] (setting [7]), in assay [2] (setting [8]), in assay [2] (setting [9]), in assay [2] (setting [10]) and in assay [2] (setting [11]) was 44.9 throughout. Besides, the “Ratio hCT/hAmylin binding” value in assay [2] (setting [12]) was 44.9. The pIC50 at rat calcitonin receptor was 7.77.

The values above are taken from US9023789B2, “Amylin analogs and pharmaceutical compositions thereof” (Novo Nordisk A/S, priority 2012, dated 2015).
